# Measured values: patent US8791303B2, “Herbicides” (Syngenta Limited, priority 2009, dated 2014)
# What was measured:
# Lolium perenne (LOLPE) [1] = experiment: Example A glasshouse herbicide test, pre-emergence, LOLPE; type: in vivo; conditions: Lolium perenne, pre-emergence, 312 h, Rate 250 g/ha, sprayed after cultivation for one day, evaluated after 13 days, read-out: Pre-Emergence Activity LOLPE (100=total damage to plant; 0=no damage to plant)
# How it was run: (§1)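 Plants in pots of standard soil receive a spray of compound in acetone/water (50:50) plus 0.5% Tween 20, either one day (pre-emergence) or 8 days (post-emergence) after sowing. Phytotoxicity is assessed 13 days later, 0–100.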
# Avena fatua (AVEFA) [2] = experiment: Example A glasshouse herbicide test, post-emergence, AVEFA; type: in vivo; conditions: Avena fatua, post-emergence, 312 h, Rate 250 g/ha, sprayed after 8 days cultivation, evaluated after 13 days, read-out: Post-Emergence Activity AVEFA (100=total damage to plant; 0=no damage to plant)
# How it was run: as §1
# Lolium perenne (LOLPE) [3] = experiment: Example A glasshouse herbicide test, post-emergence, LOLPE; type: in vivo; conditions: Lolium perenne, post-emergence, 312 h, Rate 250 g/ha, sprayed after 8 days cultivation, evaluated after 13 days, read-out: Post-Emergence Activity LOLPE (100=total damage to plant; 0=no damage to plant)
# How it was run: as §1
# [4] = test system: Echinochloa crus-galli (ECHCG); experiment: Example A glasshouse herbicide test, pre-emergence, ECHCG; type: in vivo; conditions: Echinochloa crus-galli, pre-emergence, 312 h, Rate 250 g/ha, sprayed after cultivation for one day, evaluated after 13 days, read-out: Pre-Emergence Activity ECHCG (100=total damage to plant; 0=no damage to plant)
# How it was run: as §1
# Avena fatua (AVEFA) [5] = experiment: Example A glasshouse herbicide test, pre-emergence, AVEFA; type: in vivo; conditions: Avena fatua, pre-emergence, 312 h, Rate 250 g/ha, sprayed after cultivation for one day, evaluated after 13 days, read-out: Pre-Emergence Activity AVEFA (100=total damage to plant; 0=no damage to plant)
# How it was run: as §1
# [6] = test system: Alopecurus myosuroides (ALOMY); experiment: Example A glasshouse herbicide test, post-emergence, ALOMY; type: in vivo; conditions: Alopecurus myosuroides, post-emergence, 312 h, Rate 250 g/ha, sprayed after 8 days cultivation, evaluated after 13 days, read-out: Post-Emergence Activity ALOMY (100=total damage to plant; 0=no damage to plant)
# How it was run: as §1
# [7] = test system: Alopecurus myosuroides (ALOMY); experiment: Example A glasshouse herbicide test, pre-emergence, ALOMY; type: in vivo; conditions: Alopecurus myosuroides, pre-emergence, 312 h, Rate 250 g/ha, sprayed after cultivation for one day, evaluated after 13 days, read-out: Pre-Emergence Activity ALOMY (100=total damage to plant; 0=no damage to plant)
# How it was run: as §1
# [8] = test system: Echinochloa crus-galli (ECHCG); experiment: Example A glasshouse herbicide test, post-emergence, ECHCG; type: in vivo; conditions: Echinochloa crus-galli, post-emergence, 312 h, Rate 250 g/ha, sprayed after 8 days cultivation, evaluated after 13 days, read-out: Post-Emergence Activity ECHCG (100=total damage to plant; 0=no damage to plant)
# How it was run: as §1
# [9] = test system: Winter Wheat variety 'Hereward'; experiment: Example B crop damage test, post-emergence, unsafened wheat; type: in vivo; conditions: Rate 250 g/ha; post-emergence spray after 8 days cultivation; no safener; evaluated after 13 days
# How it was run: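 Winter wheat 'Hereward' was sprayed post-emergence 8 days after sowing, using formulated active ingredient in acetone/water (50:50) with 0.5% Tween 20. Plants grew in a glasshouse at 24/16 °C day/night, 14 h light and 65% humidity. Damage was scored 13 days later (0 = none, 100 = total).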
# [10] = test system: Winter Wheat variety 'Hereward'; experiment: Example B crop damage test, post-emergence, wheat seed treated with safener cloquintocet mexyl; type: in vivo; conditions: Rate 250 g/ha; post-emergence spray 8 days after sowing; seed treated with cloquintocet mexyl 0.5 g/kg dry seed; evaluated after 13 days
# How it was run: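 Wheat seed pre-treated with cloquintocet mexyl at 0.5 g/kg seed, sown 8 days before post-emergence spraying of compound in acetone/water (50:50) with 0.5% Tween 20. Glasshouse at 24/16° C, 14 h light, 65% humidity. Damage scored visually after 13 days, 0 (none) to 100 (total).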
Compound,pest or weed control at 250 g/ha (Lolium perenne (LOLPE) [1]) [%],pest or weed control at 250 g/ha (Avena fatua (AVEFA) [2]) [%],pest or weed control at 250 g/ha (Lolium perenne (LOLPE) [3]) [%],pest or weed control at 250 g/ha [4] [%],melting point [°C],pest or weed control at 250 g/ha (Avena fatua (AVEFA) [5]) [%],pest or weed control at 250 g/ha [6] [%],pest or weed control at 250 g/ha [7] [%],pest or weed control at 250 g/ha [8] [%],Winter Wheat (Hereward) damage (100=total damage to plant; 0=no damage to plant) [9],Winter Wheat (Hereward) + cloquintocet mexyl damage (100=total damage to plant; 0=no damage to plant) [10]
Cc1cc(C)c(C2C(=O)CC(Cc3cccc(Oc4ccccc4)c3)C2=O)c(C)c1 (stereo not shown) [Compound A13],40,30,20,20,192 to 194.8,0,30,10,20,,
Cc1cc(C)c(C2C(=O)CC(Cc3ccccc3F)C2=O)c(C)c1 (stereo not shown) [Compound A14],100,30,90,90,197.8 to 210.2,40,80,70,80,30,20
Cc1cc(C)c(C2C(=O)CC(Cc3ccccc3C)C2=O)c(C)c1 (stereo not shown) [Compound A15],100,50,90,60,210 to 215.5,70,80,70,40,30,20
Cc1cc(C)c(C2C(=O)CC(Cc3ccc(-c4csnn4)cc3)C2=O)c(C)c1 (stereo not shown) [Compound A16],70,50,30,80,225 to 232,30,20,10,50,,
Cc1cc(C)c(C2C(=O)CC(Cc3ccccc3)C2=O)c(C)c1 (stereo not shown) [Compound A17],90,40,80,70,160 to 165,30,80,50,60,10,10
Cc1cccc(CC2CC(=O)C(c3c(C)cc(C)cc3C)C2=O)c1 (stereo not shown) [Compound A18],100,50,90,100,173 to 179,50,80,80,50,20,10
Cc1cc(C)c(C2C(=O)CC(Cc3ccc(C#N)cc3)C2=O)c(C)c1 (stereo not shown) [Compound A19],90,60,90,100,249 to 251,40,90,80,90,60,10
Cc1cc(C)c(C2C(=O)CC(Cc3cc(F)cc(F)c3)C2=O)c(C)c1 (stereo not shown) [Compound A20],100,30,50,80,193 to 193.2,20,20,30,50,10,0
Cc1cc(C)cc(CC2CC(=O)C(c3c(C)cc(C)cc3C)C2=O)c1 (stereo not shown) [Compound A21],100,20,30,90,181 to 184,20,40,60,60,20,20
Cc1cc(C)c(C2C(=O)CC(Cc3ccc(CS(=O)(=O)c4ccccc4)cc3)C2=O)c(C)c1 (stereo not shown) [Compound A22],20,10,20,30,189 to 191.7,0,0,0,20,,
Cc1cc(C)c(C2C(=O)CC(Cc3ccc(S(C)(=O)=O)cc3)C2=O)c(C)c1 (stereo not shown) [Compound A23],100,90,50,90,235.3 to 238.6,80,90,90,90,50,50
